Drawing on patent US11512053B2, “Arginine methyltransferase inhibitors and uses thereof” (priority 2013, dated 2022), this text covers IC50 for one molecule.

Each structure is given as a SMILES string. Like-named read-outs stand apart in the source and are kept apart here.

This test deals with T1, full-length human PRMT3 isoform 1 (GST-tagged) (Homo sapiens, UniProt O60678).
T1 construct: GST-tagged PRMT3; made in house; host or cells: E. coli BL21(DE3) Gold
Briefly: PRMT3 Biochemical Assay (3H-SAM Flashplate, peptide substrate). An excerpt:
General Materials. S-adenosylmethionine (SAM), S-adenosylhomocysteine (SAH), bicine, Tween20, dimethylsulfoxide (DMSO), bovine skin gelatin (BSG),), isopropyl-β-D-thiogalactopyranoside (IPTG), and Tris(2-carboxyethyl)phosphine hydrochloride solution (TCEP) were purchased from Sigma-Aldrich at the highest level of purity possible. ^3H-SAM was purchase from American Radiolabeled Chemicals with a specific activity of 80 Ci/mmol. 384-well streptavidin Flashplates were purchased from PerkinElmer.
Substrates. Peptide containing the classic RMT substrate motif was synthesized with an N-terminal linker-affinity tag motif and a C-terminal amide cap by 21st Century Biochemicals. The peptide was purified by high-performance liquid chromatography (HPLC) to greater than 95% purity and confirmed by liquid chromatography mass spectrometry (LC-MS). The sequence was Biot-Ahx-[…]-amide (SEQ ID NO.:11).
Molecular Biology: Full-length human PRMT3 (NM_005788.3) isoform 1 transcript clone was amplified from an HEK 293 cDNA library and subcloned into pGEX-KG (GE Life Sciences). The resulting construct encodes an N-terminal GST tag and a thrombin cleavage sequence ([…] […] […] […] S) (SEQ ID NO.:12) fused directly to Cys 2 of PRMT3.
Protein Expression. E. coli (BL21(DE3) Gold, Stratagene) made competent by the CaCl2) method were transformed with the PRMT3 construct and ampicillin selection. Protein over-expression was accomplished by growing the PRMT3 expressing E. coli clone and inducing expression with 0.3 mM IPTG at 16° C. The culture was grown for 12 hours, harvested by centrifugation, and stored at −80° C. for purification.
Protein Purification. […] GST-tagged PRMT3 was eluted with 50 mM Tris, 2 mM glutathione, pH 7.1 and 50 mM Tris, 20 mM glutathione, pH 7.1. Pooled fractions were dialysed in 20 mM Tris, 50 mM NaCl, 5% glycerol, 1 mM EDTA, 1 mM DTT, pH7.5 (Buffer B) and applied to a Q Sepharose Fast Flow column. GST-tagged PRMT3 was eluted by 500 mM NaCl in buffer B. Pooled fractions were dialyzed in 25 mM phosphate buffer, 100 mM NaCl, 5% glycerol, 2 mM DTT, pH 6.8 (Buffer C) and loaded on to a ceramic hydroxyapatite column. GST-tagged PRMT3 eluted with 25-400 mM phosphate in buffer C. Protein was concentrated and buffer was exchanged to 20 mM Tris, 150 mM NaCl, 5% glycerol, 5 mM β-mercaptoethanol, pH7.8 by ultrafiltration. The purity of recovered protein was 70%.
General Procedure for PRMT3 Enzyme Assays on Peptide Substrates. The assays were all performed in a buffer consisting of 20 mM Bicine (pH=7.6), 1 mM TCEP, 0.005% BSG, and 0.002% Tween 20, prepared on the day of use. Compounds in 100% DMSO (1 ul) were spotted into a polypropylene 384-well V-bottom plates (Greiner) using a Platemate Plus outfitted with a 384-channel head (Thermo Scientific). DMSO (1 ul) was added to Columns 11, 12, 23, 24, rows A-H for the maximum signal control and 1 ul of SAH, a known product and inhibitor of PRMT3, was added to columns 11, 12, 23, 24, rows I-P for the minimum signal control. A cocktail (40 ul) containing the PRMT3 enzyme was added by Multidrop Combi (Thermo-Fisher). The compounds were allowed to incubate with PRMT3 for 30 min at room temperature, then a cocktail (10 ul) containing SAM and peptide was added to initiate the reaction (final volume=51 ul). The final concentrations of the components were as follows: PRMT3 was 0.5 nM, ^3H-SAM was 100 nM, non-radiolabeled SAM was 1.8 uM, peptide was 330 nM, SAH in the minimum signal control wells was 1 mM, and the DMSO concentration was 2%. The assays were stopped by the addition of potassium chloride (10 ul) to a final concentration of 100 mM. 50 ul of the reaction in the 384-well polypropylene plate was then transferred to a 384-well Flashplate and the biotinylated peptides were allowed to bind to the streptavidin surface for at least 1 hour before being washed once with 0.1% Tween20 in a Biotek ELx405 plate washer. […]

T1 sequence (O60678 with tags, fused parts or gaps): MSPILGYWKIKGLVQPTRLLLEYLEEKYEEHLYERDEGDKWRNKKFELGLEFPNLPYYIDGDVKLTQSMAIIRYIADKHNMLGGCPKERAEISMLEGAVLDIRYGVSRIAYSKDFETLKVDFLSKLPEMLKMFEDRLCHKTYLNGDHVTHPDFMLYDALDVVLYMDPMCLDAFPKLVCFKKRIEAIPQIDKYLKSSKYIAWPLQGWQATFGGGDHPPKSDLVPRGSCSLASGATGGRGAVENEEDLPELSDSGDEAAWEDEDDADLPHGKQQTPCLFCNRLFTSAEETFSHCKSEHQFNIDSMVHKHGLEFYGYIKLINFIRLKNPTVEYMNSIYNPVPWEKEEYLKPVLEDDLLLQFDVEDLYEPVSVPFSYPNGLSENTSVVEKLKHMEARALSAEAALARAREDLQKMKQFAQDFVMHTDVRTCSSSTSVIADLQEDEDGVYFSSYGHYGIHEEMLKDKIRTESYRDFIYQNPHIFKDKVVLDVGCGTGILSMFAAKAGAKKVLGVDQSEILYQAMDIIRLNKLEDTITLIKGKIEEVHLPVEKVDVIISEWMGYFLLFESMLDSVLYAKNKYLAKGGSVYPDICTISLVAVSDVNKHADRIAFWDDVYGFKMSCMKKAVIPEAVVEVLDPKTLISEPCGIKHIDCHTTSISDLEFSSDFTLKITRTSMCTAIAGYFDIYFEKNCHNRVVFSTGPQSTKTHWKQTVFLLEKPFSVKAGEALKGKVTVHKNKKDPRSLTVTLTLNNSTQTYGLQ

With `CN(CCN)Cc1c[nH]nc1CCc1ccccc1` [Compound 9], the IC50 (in general, the concentration that inhibits the measured activity by half) was in the range of 3.01 to 10 µM. Where the note is “single experiment or average of multiple experiments”, this molecule gave an IC50 of 8.93 µM.
